Measured values taken from patent US11530181B2, “IL-6 inhibitors and methods of treatment” (University of Florida Research Foundation, Incorporated, priority 2018, dated 2022).

Legend:
Assay type in all cases: cell-based, human
[1] = test system: LIF induced STAT3 phosphorylation; test: Western blot, LIF induced STAT3 phosphorylation in MCF7
Procedure: (§1) Cells were harvested and lysed in cold radioimmunoprecipitation assay (RIPA) lysis buffer containing proteasome inhibitor cocktail and phosphatase inhibitor cocktail. The protein concentrations were determined using the BCA Protein Assay kit. After adding the loading buffer and boiling at 95° C. for 10 minutes, equivalent amounts of proteins were loaded on and separated by SDS-PAGE, and then were transferred to PVDF membranes. Membranes were probed with primary antibodies (1:1000) against phospho-STAT3 (Tyr705), STAT3, phospho-STAT1 (Tyr701), STAT1, phospho-STAT6 (Tyr 641), STAT6, and GAPDH, respectively, and horseradish peroxidase (HRP)-conjugated secondary antibody (1:10000) (Cell Signaling Technology, Beverly, Mass.). Membranes were analyzed using Enhanced Chemiluminescence Plus reagents and either scanned with the Storm Scanner (Amersham Pharmacia Biotech, Inc., Piscataway, N.J.) or imaged with ChemiDoc MP imaging system (Bio-Rad, Hercules, Calif.). […] The cells were harvested after 30 minutes and analyzed by Western blot.
MCF7 breast cancer cells were seeded in 10 cm plates (1 million cells per plate) and allowed to adhere overnight. […] The cells were harvested after 30 minutes and analyzed by western blotting.

STAT2 phosphorylation = test: Western blot, STAT2 phosphorylation in MCF7; settings: MCF7, pre-treatment 2, 3 and 4 hours
Procedure: FIG. 13. depicts the reduced effect on STAT1, STAT2, STAT4 and STAT6 phosphorylation by LLM418. The MCF7 cells were serum-starved overnight, then treated with LLM4 (15 μM) for 2, 3 and 4 hours. STAT1, STAT2, STAT4 and STAT6 phosphorylation were induced by INF-γ, INF-α and IL-4, respectively. The cells were harvested at 30 minutes and analyzed by western blot assays.
as §1

[2] = test system: MCF7 breast cancer cell line; test: MTT cell viability assay, MCF7; settings: Homo sapiens; MCF7 (low IL-6), 48 h, 0% FBS medium
Procedure: (§2) Human breast cancer cell lines MCF7, MDA-MB-231 and SUM159 were maintained in Dulbecco's modified Eagle medium (DMEM). Human pancreatic cancer cell line BxPC-3 was maintained in RPMI 1640 medium. Human pancreatic cancer cell line Capan-1 was maintained in Iscove's Modified Dulbecco's Medium (IMEM). All media were supplemented with 10% FBS and 1% penicillin/streptomycin, and cells were incubated in a humidified 37° C. incubator with 5% CO2. PE/CA-PJ49 cell line was purchased from external sources and maintained according to manufacturer's protocol.
(§3) Cell viability was evaluated by using the MTT assay in triple replicates in one experiment and repeated for three times. Cancer cells were seeded in 96-well plates at a density of 3,000 cells per well. The cells were incubated at 37° C. for a period of 24 hours. […] After incubation for 48 or 72 hours, a stock solution of MTT (0.5 mg/ml) was then added to each well containing the treated cells, followed by incubation at 37° C. for 3 h. After removal of medium, the MTT dye was dissolved with spectrophotometric grade DMSO and the absorbance was read at 570 nm. The IC50 value is determined by interpolation based on the absorbance value halfway between positive and negative controls. […]

[3] = test system: MDA-MB-231 breast cancer cell line; test: MTT cell viability assay, MDA-MB-231; settings: Homo sapiens; MDA-MB-231 (medium IL-6), 48 h, 0% FBS medium
Procedure: as §2, §3

IC50 [2] [nM]	IC50 [3] [nM]	Compound	inhibition of LIF induced STAT3 phosphorylation ([1]; MCF7, 4 μM)	effect on STAT2 phosphorylation (STAT2 phosphorylation)	LIF induced STAT3 phosphorylation ([1]; MCF7, 15 μM, 2, 3 and 4 hours)
		O=C(Nc1ccccc1-c1ccn[nH]1)c1ccc(OCCN2CCCCC2)cc1 [LLM418, N-(2-(1H-pyrazol-5-yl)phenyl)-4-(2-(piperidin-1-yl)ethoxy)benzamide]	very little inhibitory effect	little effect	
4510	970	O=C(Nc1cc(F)ccc1-n1cccc1)c1ccc(OCCCN2CCCCC2)cc1 [LLM4, N-(5-fluoro-2-(1H-pyrrol-1-yl)phenyl)-4-(3-(piperidin-1-yl)propoxy)benzamide]			remain intact
